Measured values taken from paper PMC12488629, “Insecticidal activity of monoamide compounds from Humulus scandens against Spodoptera frugiperda” (Frontiers in Plant Science, 2025).
Converted amounts (≈) assume the structure as drawn.

Experiments:
AchE from S. frugiperda = AchE from S. frugiperda (Spodoptera frugiperda, UniProt A0A9R0CUI4); experiment: Kinetic study of compound inhibition on AchE; assay type: biochemical; conditions: for Inhibition type on AchE: Lineweaver-Burk double reciprocal plots; for Reversibility of AchE inhibition: reaction rate vs enzyme concentration
Method: Subsequently, 1.5 mM acetylcholine (ACh) (50 µL) and 0.3 mM DTNB (50 µL) were added, and the time was immediately recorded. The OD values were accurately measured after 60 seconds at 412 nm using a microplate reader, and the reaction rate (ΔA/min) was calculated based on the change in OD value per minute.
The OD values were accurately measured after 60 seconds at 412 nm using a microplate reader, and the reaction rate (ΔA/min) was calculated based on the change in OD value per minute. […] The inhibition constant (Ki) of the compound was calculated by plotting the Dixon plot.

[1] = tested on: Acetylcholinesterase (AchE); experiment: AchE activity in living S. frugiperda after immersion treatment; assay type: in vivo, Spodoptera frugiperda; conditions: treatment at LC50 and double the LC50, immersion
Method: The compounds were prepared in solutions at the LC50 and double the LC50, and 4th-instar S. frugiperda larvae were treated using the immersion method. Ten larvae were treated per concentration, with five replicates, and acetone was used as the solvent control. The Acetylcholinesterase (AchE) activity was measured following the operating procedures of the AchE assay kit (Shenggong Biotech Co., Shanghai, China.).

[2] = tested on: 4th instar S. frugiperda larva; experiment: Dietary toxicity of compounds, artificial feed film method; assay type: in vivo, Spodoptera frugiperda; conditions: for Insecticidal activity, dietary poisoning (in words): 200 µg/mL; for LC50: Spodoptera frugiperda, feed or water, Gastrotoxic activity (dietary toxicity), 72 hours, 4th instar larvae
Method: The dietary toxicity of the compounds against S. frugiperda was determined via the artificial feed film method ([Lu, 2022]). Take 1g of artificial feed and place it in a petri dish, then add 0.1 ml of the liquid medicine (acetone as the solvent and concentration of 200 μg/mL for all compounds) was added to form a uniform film on the surface of the feed. After allowing the feed to dry in a shaded area, one uniformly sized 4th instar S. frugiperda larva was introduced into each dish. Each treatment included 10 Petri dishes, and the experiment was repeated twice. Acetone was used as the solvent control, and a blank control was also used. Mortality was recorded at 24, 48, and 72 hours, and the corrected mortality rate was calculated.
(§1) Mortality(%)=(Mortality of treatment group-Mortality of control group)/(1-Mortality of control group)×100%
The compound concentrations used were 50, 100, 200, 400, and 800 μg/mL. The remaining procedures were the same as those described in section 2.6.1. After 72 hours, the number of dead insects was recorded. The experimental data were processed using Microsoft Excel and SPSS 20.0 software, with the inhibition rates converted into corresponding probability values. A toxicity regression equation was derived, and the LC50 value was calculated.

[3] = tested on: 4th instar S. frugiperda larvae; experiment: Contact toxicity of compounds, immersion method; assay type: in vivo, Spodoptera frugiperda; conditions: for Insecticidal activity, contact toxicity (in words): 200 µg/mL; for LC50: Spodoptera frugiperda, Poisoning activity (contact toxicity, immersion), 72 hours, 4th instar larvae
Method: The contact toxicity of the compounds against S. frugiperda was determined via the immersion method ([Li et al., 2023]). The compounds were prepared in solutions with a concentration of 200 μg/mL using acetone as the solvent. Uniformly sized 4th instar S. frugiperda larvae were selected and immersed in the solutions for 3–4 seconds. Each treatment included 10 Petri dishes, with one larva per dish, and the experiment was repeated three times. Acetone was used as the solvent control, and a blank control was also used. The number of dead insects was recorded at 24, 48, and 72 hours, and the corrected mortality rate was calculated.
as §1
The compound concentrations were prepared as 50, 100, 200, 400, and 800 μg/mL, with the remaining procedures following those in section 2.6.2. The number of dead insects was recorded after 72 hours. The experimental data was processed using Microsoft Excel and SPSS 20.0 software, converting the inhibition rates into corresponding probability values to obtain the toxicity regression equation and calculate the LC50 value.

Chain of AchE from S. frugiperda (A0A9R0CUI4 18-694): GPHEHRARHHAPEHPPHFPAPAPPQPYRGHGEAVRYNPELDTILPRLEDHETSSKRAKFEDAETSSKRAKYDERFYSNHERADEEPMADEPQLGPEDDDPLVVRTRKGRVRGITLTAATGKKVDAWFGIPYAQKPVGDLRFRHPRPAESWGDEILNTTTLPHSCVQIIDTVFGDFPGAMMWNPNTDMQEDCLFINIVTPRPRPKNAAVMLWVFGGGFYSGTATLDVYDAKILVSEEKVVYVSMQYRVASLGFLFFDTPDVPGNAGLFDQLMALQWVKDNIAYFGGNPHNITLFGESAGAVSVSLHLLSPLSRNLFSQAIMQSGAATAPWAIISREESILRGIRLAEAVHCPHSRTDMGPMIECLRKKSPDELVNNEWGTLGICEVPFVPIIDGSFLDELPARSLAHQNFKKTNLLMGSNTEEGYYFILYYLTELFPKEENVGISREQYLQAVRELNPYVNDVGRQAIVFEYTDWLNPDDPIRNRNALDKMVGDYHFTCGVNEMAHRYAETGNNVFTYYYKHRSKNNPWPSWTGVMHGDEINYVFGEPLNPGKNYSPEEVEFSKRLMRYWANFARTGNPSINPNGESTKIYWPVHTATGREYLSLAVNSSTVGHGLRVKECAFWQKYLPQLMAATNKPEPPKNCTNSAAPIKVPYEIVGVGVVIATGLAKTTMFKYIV

O=C(/C=C/c1ccc(O)cc1)NCCc1ccc(O)cc1 [Compound 1, N-p-coumaroyl tyramine]
Inhibition type on AchE (AchE from S. frugiperda): competitive inhibitors
Reversibility of AchE inhibition (AchE from S. frugiperda): reversible inhibitors
AchE activity of the test insects [1]: significantly decreased
Insecticidal activity, dietary poisoning (in words) [2]: good insecticidal activity
LC50 [2]: 305 mg/L (≈ 1080 µM)
Insecticidal activity, contact toxicity (in words) [3]: good insecticidal activity
LC50 [3]: 93 mg/L (≈ 328 µM)

COc1cc(/C=C/C(=O)NCCc2ccc(O)cc2)ccc1O [Compound 2, N-trans-feruloyl tyramine]
Inhibition type on AchE (AchE from S. frugiperda): competitive inhibitors
Reversibility of AchE inhibition (AchE from S. frugiperda): reversible inhibitors
AchE activity of the test insects [1]: significantly decreased
Insecticidal activity, dietary poisoning (in words) [2]: good insecticidal activity
LC50 [2]: 89.9 mg/L (≈ 287 µM)
Insecticidal activity, contact toxicity (in words) [3]: good insecticidal activity
LC50 [3]: 48 mg/L (≈ 153 µM)
